± gives the expanded uncertainty stated by the source.
Experiment: xn = mol fraction of the nth substance listed
Details: Gas, Buoyancy - hydrostatic balance with magnetic suspension - one sinker, x2 = 0.8977

N#N [nitrogen] + C
Details	mass density [kg/m3]
170.59 K, 761.2 kPa	10.0103 ± 0.2
170.59 K, 1037.8 kPa	14.0966 ± 0.28
170.59 K, 1287.8 kPa	18.0625 ± 0.36
170.6 K, 455.1 kPa	5.7907 ± 0.12
187.47 K, 422.8 kPa	4.8286 ± 0.097
187.47 K, 722.4 kPa	8.4419 ± 0.17
187.47 K, 1064.8 kPa	12.7954 ± 0.26
187.47 K, 1349.6 kPa	16.6251 ± 0.33
217.54 K, 441.1 kPa	4.2954 ± 0.086
217.54 K, 1298.9 kPa	13.1778 ± 0.26
217.54 K, 1475.3 kPa	15.0994 ± 0.3
217.55 K, 724.1 kPa	7.1436 ± 0.14
217.55 K, 1017.9 kPa	10.1853 ± 0.2
240.48 K, 975.3 kPa	8.695 ± 0.17
240.48 K, 1256.7 kPa	11.3113 ± 0.23
240.48 K, 1594.5 kPa	14.5212 ± 0.29
240.49 K, 438.2 kPa	3.8367 ± 0.077
240.49 K, 715.8 kPa	6.3263 ± 0.13
261 K, 145.7 kPa	1.1633 ± 0.024
261 K, 436.6 kPa	3.5148 ± 0.07
261 K, 729 kPa	5.9093 ± 0.12
261 K, 1021.7 kPa	8.3427 ± 0.17
270.05 K, 133.3 kPa	1.0285 ± 0.021
270.05 K, 424.6 kPa	3.2976 ± 0.066
270.05 K, 731.4 kPa	5.7195 ± 0.11
270.05 K, 1025.7 kPa	8.0721 ± 0.16
270.05 K, 1195.4 kPa	9.445 ± 0.19
